Assay results: US4904590A, “Antibiotic A80915 and process for its production” (Eli Lilly and Company, priority 1988, dated 1990)
≈ marks a conversion by molar mass, not a printed value. Like-named read-outs stand apart in the source and are kept apart here.

How the values were obtained:
[1] = tested on: Bordetella bronchiseptica; format: cell-based; conditions: Veterinary organism Bordetella bronchiseptica; agar-dilution
Method: (§1) The A80915 antibiotics inhibit the growth of bacteria which are pathogenic to animal life. […] The MIC's in Table III were determined by conventional agar-dilution assays.

Escherichia coli = format: cell-based; conditions: Veterinary organism Escherichia coli; agar-dilution
Method: as §1

Gram-negative = format: cell-based; conditions: agar-dilution
Method: as §1

Mycoplasma gallisepticum = format: cell-based; conditions: Mycoplasmoides gallisepticum; Veterinary organism Mycoplasma gallisepticum; agar-dilution
Method: as §1

Mycoplasma hyopneumoniae = format: cell-based; conditions: Mesomycoplasma hyopneumoniae; Veterinary organism Mycoplasma hyopneumoniae; agar-dilution
Method: as §1

Pasteurella hemolytica = format: cell-based; conditions: Veterinary organism Pasteurella hemolytica; agar-dilution
Method: as §1

Pasteurella multocida = format: cell-based; conditions: Veterinary organism Pasteurella multocida; agar-dilution
Method: as §1

Salmonella typhimurium = format: cell-based; conditions: Salmonella enterica; Veterinary organism Salmonella typhimurium; agar-dilution
Method: as §1

[2] = tested on: Staphylococcus aureus V41; format: cell-based; conditions: Staphylococcus aureus V41; agar-dilution; read-out: MIC
Method: as §1

[3] = tested on: Staphylococcus aureus X1.1; format: cell-based; conditions: Staphylococcus aureus X1.1; agar-dilution; read-out: MIC
Method: as §1

[4] = tested on: Staphylococcus aureus X400; format: cell-based; conditions: Staphylococcus aureus X400; agar-dilution; read-out: MIC
Method: as §1

[5] = tested on: Staphylococcus epidermis 222; format: cell-based; conditions: Staphylococcus epidermis 222; agar-dilution; read-out: MIC
Method: as §1

[6] = tested on: Staphylococcus epidermis EPI1; format: cell-based; conditions: Staphylococcus epidermis EPI1; agar-dilution; read-out: MIC
Method: as §1

Staphylococcus sp. = format: cell-based; conditions: Veterinary organism Staphylococcus sp.; agar-dilution
Method: as §1

[7] = tested on: Streptococcus faecium 2041; format: cell-based; conditions: Enterococcus faecium; Streptococcus faecium 2041; agar-dilution; read-out: MIC
Method: as §1

[8] = tested on: Streptococcus faecium X66; format: cell-based; conditions: Enterococcus faecium; Streptococcus faecium X66; agar-dilution; read-out: MIC
Method: as §1

[9] = tested on: Streptococcus pneumoniae Park1; format: cell-based
Method: as §1

[10] = tested on: Streptococcus pyogenes C203; format: cell-based; conditions: Streptococcus pyogenes C203; agar-dilution; read-out: MIC
Method: as §1

Streptococcus sp. = format: cell-based; conditions: Veterinary organism Streptococcus sp.; agar-dilution
Method: as §1

[11] = tested on: Clostridium difficile 2994; experiment: Susceptibility of anaerobic bacterial isolates (MIC), agar-dilution; format: cell-based
[12] = tested on: Clostridium perfringens 81; experiment: microbe, parasite or virus in culture; format: cell-based; conditions: Clostridium perfringens, 81, 24 h
[13] = tested on: Clostridium septicum 1128; experiment: Susceptibility of anaerobic bacterial isolates (MIC), agar-dilution; format: cell-based; conditions: 24-hour incubation
Method: The A80915 antibiotics also are active against anaerobic bacteria. […] End points were read after 24-hour incubation.

[14] = tested on: Eubacterium aerofaciens 1235; experiment: as above; format: cell-based
[15] = tested on: Peptococcus asaccharolyticus 1302; experiment: as above; format: cell-based; conditions: Peptoniphilus asaccharolyticus, 1302, 24 h
Peptococcus prevoti 1281 = experiment: as above; format: cell-based
[16] = tested on: Peptostreptococcus anaerobius 1428; experiment: as above; format: cell-based
[17] = tested on: Peptostreptococcus intermedius 1264; experiment: as above; format: cell-based
[18] = tested on: Propionibacterium acnes 79; experiment: as above; format: cell-based
Bacteriodes fragilis 111 = experiment: as above; format: cell-based
[19] = tested on: Bacteriodes fragilis 1877; experiment: as above; format: cell-based
[20] = tested on: Bacteriodes fragilis 1936B; experiment: as above; format: cell-based
[21] = tested on: Bacteriodes thetaiotaomicron 1438; experiment: as above; format: cell-based
[22] = tested on: Bacteriodes melaninogenicus 1856/28; experiment: as above; format: cell-based
[23] = tested on: Bacteriodes melaninogenicus 2736; experiment: as above; format: cell-based
[24] = tested on: Bacteriodes vulgatis 1211; experiment: as above; format: cell-based
[25] = tested on: Bacteriodes corrodens 1874; experiment: as above; format: cell-based
[26] = tested on: Fusobacterium symbiosum 1470; experiment: as above; format: cell-based
[27] = tested on: Fusobacterium necrophorum 6054A; experiment: as above; format: cell-based
Trichomonas vaginalis = experiment: Anti-protozoan activity (MIC); format: cell-based
Trichomonas foetus = experiment: Anti-protozoan activity (MIC); format: cell-based; conditions: Tritrichomonas foetus
Candida albicans = experiment: Anti-fungal activity (MIC); format: cell-based
[28] = Acute toxicity in mice, intraperitoneal injection; conditions: mouse, in vivo, ip
From the text: The acute toxicity of the A80915 antibiotics in mice, when administered by intraperitoneal injection and expressed as LD50, is shown in Table V.

[29] = Spontaneous loss of nitrogen on standing in solvent; format: physicochemical; conditions: standing at room temperature in a solvent such as methanol, ethanol or water
From the text: Loss of nitrogen is accelerated by, for example, heating or the addition of salts or mild reducing agents such as sodium hyposulfite, and the like.

Structure (SMILES): C=C1CCC(Cl)C(C)(C)C1CC12OC(C)(C)C(Cl)CC1(Cl)C(=O)c1c(O)c(C)c([O-])c([N+]#N)c1C2=O (centres unmarked) [A80915B]
- MIC [1]: > 50 µg/mL
- MIC (Escherichia coli): > 50 µg/mL
- MIC (Gram-negative): > 128 µg/mL
- MIC (Mycoplasma gallisepticum): 0.1 µg/mL (≈ 0.18 µM)
- MIC (Mycoplasma hyopneumoniae): 3.12 µg/mL (≈ 5.61 µM)
- MIC (Pasteurella hemolytica): 12.5 µg/mL (≈ 22.5 µM)
- MIC (Pasteurella multocida): 0.2 µg/mL (≈ 0.36 µM)
- MIC (Salmonella typhimurium): > 50 µg/mL
- MIC [2]: 2 µg/mL (≈ 3.6 µM)
- MIC [3]: 2 µg/mL (≈ 3.6 µM)
- MIC [4]: 2 µg/mL (≈ 3.6 µM)
- MIC [5]: 2 µg/mL (≈ 3.6 µM)
- MIC [6]: 2 µg/mL (≈ 3.6 µM)
- MIC (Staphylococcus sp.): < 0.05 µg/mL
- MIC [7]: 8 µg/mL (≈ 14.4 µM)
- MIC [8]: 8 µg/mL (≈ 14.4 µM)
- MIC ([9]; Streptococcus pneumoniae, PARK1): 8 µg/mL (≈ 14.4 µM)
- MIC [10]: 8 µg/mL (≈ 14.4 µM)
- MIC (Streptococcus sp.): 0.1 µg/mL (≈ 0.18 µM)
- MIC ([11]; Clostridioides difficile, 2994, 24 h): > 128 µg/mL
- MIC [12]: > 128 µg/mL
- MIC [13]: > 128 µg/mL
- MIC ([14]; Collinsella aerofaciens, 1235, 24 h): > 128 µg/mL
- MIC [15]: 128 µg/mL (≈ 230 µM)
- MIC (Peptococcus prevoti 1281; 24 h): 64 µg/mL (≈ 115 µM)
- MIC ([16]; Peptostreptococcus anaerobius, 1428, 24 h): > 128 µg/mL
- MIC ([17]; Peptostreptococcus, 1264, 24 h): 128 µg/mL (≈ 230 µM)
- MIC ([18]; Cutibacterium acnes, 79, 24 h): 128 µg/mL (≈ 230 µM)
- MIC (Bacteriodes fragilis 111; 24 h): > 128 µg/mL
- MIC ([19]; 24 h): > 128 µg/mL
- MIC ([20]; 24 h): > 128 µg/mL
- MIC ([21]; 24 h): > 128 µg/mL
- MIC ([22]; 24 h): 128 µg/mL (≈ 230 µM)
- MIC ([23]; 24 h): > 128 µg/mL
- MIC ([24]; 24 h): > 128 µg/mL
- MIC ([25]; 24 h): > 128 µg/mL
- MIC ([26]; Fusobacterium, 1470, 24 h): > 128 µg/mL
- MIC ([27]; Fusobacterium necrophorum, 6054A, 24 h): > 128 µg/mL
- MIC (Trichomonas vaginalis): 6.25 µg/mL (≈ 11.2 µM)
- MIC (Trichomonas foetus): 12.5 µg/mL (≈ 22.5 µM)
- MIC (Candida albicans): 5 µg/mL (≈ 8.99 µM)
- LD50 [28]: 75 mg/kg
- loss of nitrogen (stability) [29]: spontaneously lose nitrogen

Structure (SMILES): Cc1c([O-])c([N+]#N)c2c(c1O)C(=O)[C@@]1(Cl)C[C@@H](Cl)C(C)(C)O[C@@]1(C[C@H]1C(C)(C)[C@@H](Cl)CC[C@]1(C)O)C2=O [A80915D]
- MIC [1]: > 50 µg/mL
- MIC (Escherichia coli): > 50 µg/mL
- MIC (Gram-negative): > 128 µg/mL
- MIC (Mycoplasma gallisepticum): > 50 µg/mL
- MIC (Mycoplasma hyopneumoniae): 25 µg/mL (≈ 43.6 µM)
- MIC (Pasteurella hemolytica): 12.5 µg/mL (≈ 21.8 µM)
- MIC (Pasteurella multocida): 3.12 µg/mL (≈ 5.44 µM)
- MIC (Salmonella typhimurium): > 50 µg/mL
- MIC [2]: 2 µg/mL (≈ 3.48 µM)
- MIC [3]: 1 µg/mL (≈ 1.74 µM)
- MIC [4]: 2 µg/mL (≈ 3.48 µM)
- MIC [5]: 1 µg/mL (≈ 1.74 µM)
- MIC [6]: 2 µg/mL (≈ 3.48 µM)
- MIC (Staphylococcus sp.): 0.2 µg/mL (≈ 0.348 µM)
- MIC [7]: 32 µg/mL (≈ 55.8 µM)
- MIC [8]: 32 µg/mL (≈ 55.8 µM)
- MIC ([9]; Streptococcus pneumoniae Park1, agar-dilution, read-out: MIC): 1 µg/mL (≈ 1.74 µM)
- MIC [10]: 2 µg/mL (≈ 3.48 µM)
- MIC (Streptococcus sp.): 3.12 µg/mL (≈ 5.44 µM)
- MIC ([11]; Clostridioides difficile, Clostridium difficile 2994, agar-dilution, 24-hour incubation, read-out: MIC): 16 µg/mL (≈ 27.9 µM)
- MIC [12]: 16 µg/mL (≈ 27.9 µM)
- MIC [13]: 16 µg/mL (≈ 27.9 µM)
- MIC ([14]; Collinsella aerofaciens, Eubacterium aerofaciens 1235, agar-dilution, 24-hour incubation, read-out: MIC): 16 µg/mL (≈ 27.9 µM)
- MIC [15]: 4 µg/mL (≈ 6.97 µM)
- MIC (Peptococcus prevoti 1281; Peptococcus prevoti 1281, agar-dilution, 24-hour incubation, read-out: MIC): 8 µg/mL (≈ 13.9 µM)
- MIC ([16]; Peptostreptococcus anaerobius 1428, agar-dilution, 24-hour incubation, read-out: MIC): 8 µg/mL (≈ 13.9 µM)
- MIC ([17]; Peptostreptococcus intermedius 1264, agar-dilution, 24-hour incubation, read-out: MIC): 128 µg/mL (≈ 223 µM)
- MIC ([18]; Cutibacterium acnes, Propionibacterium acnes 79, agar-dilution, 24-hour incubation, read-out: MIC): 16 µg/mL (≈ 27.9 µM)
- MIC (Bacteriodes fragilis 111; Bacteriodes fragilis 111, agar-dilution, 24-hour incubation, read-out: MIC): 16 µg/mL (≈ 27.9 µM)
- MIC ([19]; Bacteriodes fragilis 1877, agar-dilution, 24-hour incubation, read-out: MIC): 16 µg/mL (≈ 27.9 µM)
- MIC ([20]; Bacteriodes fragilis 1936B, agar-dilution, 24-hour incubation, read-out: MIC): 8 µg/mL (≈ 13.9 µM)
- MIC ([21]; Bacteriodes thetaiotaomicron 1438, agar-dilution, 24-hour incubation, read-out: MIC): > 128 µg/mL
- MIC ([22]; Bacteriodes melaninogenicus 1856/28, agar-dilution, 24-hour incubation, read-out: MIC): 32 µg/mL (≈ 55.8 µM)
- MIC ([23]; Bacteriodes melaninogenicus 2736, agar-dilution, 24-hour incubation, read-out: MIC): > 128 µg/mL
- MIC ([24]; Bacteriodes vulgatis 1211, agar-dilution, 24-hour incubation, read-out: MIC): > 128 µg/mL
- MIC ([25]; Bacteriodes corrodens 1874, agar-dilution, 24-hour incubation, read-out: MIC): > 128 µg/mL
- MIC ([26]; Fusobacterium symbiosum 1470, agar-dilution, 24-hour incubation, read-out: MIC): > 128 µg/mL
- MIC ([27]; Fusobacterium necrophorum 6054A, agar-dilution, 24-hour incubation, read-out: MIC): 8 µg/mL (≈ 13.9 µM)
- MIC (Trichomonas vaginalis): 25 µg/mL (≈ 43.6 µM)
- MIC (Trichomonas foetus): 25 µg/mL (≈ 43.6 µM)
- MIC (Candida albicans): 10 µg/mL (≈ 17.4 µM)
- LD50 [28]: 11.8 mg/kg
- loss of nitrogen (stability) [29]: spontaneously lose nitrogen
